Reference: patent publication US10196383B2, “Substituted quinazoline compounds and preparation and uses thereof” (Sunshine Lake Pharma Co., Ltd., priority 2015, dated 2019)

Experiments:
[1] = biological target: humanized OX1 receptor (Homo sapiens (Human), UniProt O43613); assay: Antagonism of humanized OX1 receptor assay (fluorescence detection of free cytoplasmic calcium, 3 nM orexin A); format: cell-based; settings: humanized OX1 receptor transfected CHO cells
Method: The capability of the compounds to the antagonism of humanized OX1 receptor transfected to the Chinese hamster ovary (CHO) cells was evaluated by the method of fluorescence detected free calcium concentration in the cytoplasm. The cells were suspended in a cell culture medium (invitrogen), and then plated to a microplate with an average density of 2×10^4 cells/well. The fluorescent probes (Fluo4 NW, Invitrogen) was mixed with probenecid Hank's balanced salt solution (invitrogen), followed by addition of 20 mM hydroxyethyl piperazine […] (invitrogen) (pH 7.4). The resulting mixture was eventually added to the microwells containing cells. The cells were incubated at 37° C. for 60 min, and then balanced at 22° C. for 15 min. The microplate was placed in a microplate reader (CellLux, PerkinElmer), and the solution of test compound with different concentrations or Hank's balanced salt solution was added. The microplate containing the solution was incubated for 5 min, followed by the addition of 3 nM of orexin A or a balanced salt solution (as control). The changes of fluorescence intensity proportional to the concentration of calcium ions in the cytoplasm were measured.
With the substrate control as 0 and 3 nM orexin A as 100%, inhibition rate of each compound was recorded. Referring to the compound SB334867, several different concentrations were measured in each experiment. Dose-response curves were made, and IC50 value of each compound was calculated.

[2] = biological target: humanized OX2 receptor (Homo sapiens (Human), UniProt O43614); assay: Antagonism of humanized OX2 receptor assay (fluorescence detection of free cytoplasmic calcium, 10 nM orexin B); format: cell-based; settings: humanized OX2 receptor transfected HEK-293 cells
Sequence of humanized OX2 receptor (O43614 whole entry): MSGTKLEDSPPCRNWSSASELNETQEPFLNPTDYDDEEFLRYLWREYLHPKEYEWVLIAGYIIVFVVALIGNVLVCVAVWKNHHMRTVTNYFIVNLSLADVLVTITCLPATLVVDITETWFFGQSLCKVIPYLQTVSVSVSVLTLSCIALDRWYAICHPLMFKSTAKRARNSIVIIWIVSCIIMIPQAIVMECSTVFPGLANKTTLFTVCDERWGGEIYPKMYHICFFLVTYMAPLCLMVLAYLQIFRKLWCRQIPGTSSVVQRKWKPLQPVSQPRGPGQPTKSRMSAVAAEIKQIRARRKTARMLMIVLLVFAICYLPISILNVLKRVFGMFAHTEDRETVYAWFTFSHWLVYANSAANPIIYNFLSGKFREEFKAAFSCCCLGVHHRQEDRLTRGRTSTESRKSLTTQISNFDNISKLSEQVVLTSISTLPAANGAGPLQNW
Method: The capability of the compounds to antagonism of humanized OX2 receptor transfected by the HEK-293 cells was evaluated by the method of fluorescence detected free calcium concentration in the cytoplasm. The cells were suspended in cell culture medium (invitrogen), and then added to a microplate with an average density of 3×10^4 cells/well. The fluorescent probes (Fluo4 NW, Invitrogen) was mixed with probenecid Hank's balanced salt solution (invitrogen), followed by addition of 20 mM hydroxyethyl piperazine […] (invitrogen) (pH 7.4). The resulting mixture was eventually added to the microwells containing cells. The cells were incubated at 37° C. for 60 min, and then balanced at 22° C. for 15 min. The microplate was placed in a microplate reader (CellLux, PerkinElmer), and the solution of test compound with different concentrations or Hank's balanced salt solution was added. The microplate containing the solution was incubated for 5 min, followed by the addition of 10 nM of orexin B or a balanced salt solution (as control). The changes of fluorescence intensity proportional to the concentration of calcium ions in the cytoplasm were measured.
With the substrate control as 0 and 10 nM of orexin B as 100%, inhibition rate of each compound was recorded. Referring to the compound JNJ10397049, several different concentrations were measured in each experiment. Dose-response curves were made, and IC50 value of each compound was calculated.

[3] = Pharmacokinetic evaluation with intravenous or oral administration; format: in vivo; settings: rats; for AUC(0-inf) / AUC(0-t) / Cmax / Tmax / clearance / Vd: rat, plasma; for Vd: read-out: Vss
Method: Pharmacokinetics of the compound of the present invention in rats, dogs or monkeys was evaluated in the present invention. The compounds of this invention were administered with a saline solution of 5% DMSO+5% Kolliphor HS 15+2% (2% HCl)+88% Saline or 10% DMSO+10% Kolliphor HS 15+80% physiological. For intravenous administration, the animals were given a dose of 1 mg/kg, drew blood (0.3 mL) at the time point of 0.083, 0.25, 0.5, 1.0, 2.0, 4.0, 6.0, 8.0 and 24 h, and centrifuged in 3,000 or 4,000 rpm for 10 min. For oral (p.o.) administration, the animals were given a dose of 2.5 mg/kg or 5 mg/kg, drew blood (0.3 mL) at the time point of 0.25, 0.5, 1.0, 2.0, 4.0, 6.0, 8.0 and 24 h, and centrifuged in 3,000 or 4,000 rpm for 10 min. Plasma solution was collected and was stored at −20° C. or […] until LC/MS/MS analysis.

[4] = intravenous administration, 1 mg/kg

Sequence of humanized OX1 receptor (O43613 whole entry): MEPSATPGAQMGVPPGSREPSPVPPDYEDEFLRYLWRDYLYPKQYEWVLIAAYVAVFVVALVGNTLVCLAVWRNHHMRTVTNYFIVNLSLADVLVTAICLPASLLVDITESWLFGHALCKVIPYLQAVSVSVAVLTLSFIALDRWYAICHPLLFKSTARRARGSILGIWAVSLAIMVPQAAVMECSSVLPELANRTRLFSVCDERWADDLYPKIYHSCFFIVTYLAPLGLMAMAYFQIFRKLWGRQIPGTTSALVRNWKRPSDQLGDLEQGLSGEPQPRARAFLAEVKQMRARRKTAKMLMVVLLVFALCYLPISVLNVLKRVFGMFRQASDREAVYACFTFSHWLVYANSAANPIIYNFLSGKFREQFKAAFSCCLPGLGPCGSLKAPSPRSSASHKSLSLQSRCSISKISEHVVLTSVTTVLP

## Cc1ccc(-n2nccn2)c(C(=O)N2CCCN(c3nc4ccc(F)cc4c(=O)[nH]3)CC2)c1 [Example 1, 6-fluoro-2-(4-(5-methyl-2-(2H-1,2,3-triazol-2-yl)benzoyl)-1,4-diazepan-1-yl)quinazolin-4(3H)-one]
[1]
  IC50: 322 nM
[2]
  IC50: 300 nM

## Cc1ccc(-n2nccn2)c(C(=O)N2CCN(c3nc4ccc(F)cc4c(=O)[nH]3)CCC2C)c1 (centres unmarked) [Example 2, 6-fluoro-2-(5-methyl-4-(5-methyl-2-(2H-1,2,3-triazol-2-yl)benzoyl)-1,4-diazepan-1-yl)quinazolin-4(3H)-one]
[1]
  IC50: 543 nM
[3]; [4]
  AUC(0-inf): 866 ng·h/mL
  AUC(0-t): 865 ng·h/mL
  Cmax: 1400 ng/mL
  Tmax: 4.98 min
  clearance: 19.2 mL/min/kg
  Vd: 0.66 L/kg
[3]; oral administration, 2.5 mg/kg
  AUC(0-inf): 1780 ng·h/mL
  AUC(0-t): 1770 ng·h/mL
  Cmax: 1940 ng/mL
  Tmax: 20 min
  F: 81.8%
[2]
  IC50: 169 nM

## Cc1ccc(-n2nccn2)c(C(=O)N2CCCN(c3nc4ccc(Cl)cc4c(=O)[nH]3)CC2)c1 [Example 5, 6-chloro-2-(4-(5-methyl-2-(2H-1,2,3-triazol-2-yl)benzoyl)-1,4-diazepan-1-yl)quinazolin-4(3H)-one]
[1]
  IC50: 276 nM
[2]
  IC50: 263 nM

## Cc1ccc(-n2nccn2)c(C(=O)N2CCN(c3nc4ccc(Cl)cc4c(=O)[nH]3)CCC2C)c1 (centres unmarked) [Example 6, 6-chloro-2-(5-methyl-4-(5-methyl-2-(2H-1,2,3-triazol-2-yl)benzoyl)-1,4-diazepan-1-yl)quinazolin-4(3H)-one]
[1]
  IC50: 367 nM
[3]; [4]
  AUC(0-inf): 1740 ng·h/mL
  AUC(0-t): 1730 ng·h/mL
  Cmax: 3660 ng/mL
  Tmax: 4.98 min
  clearance: 9.66 mL/min/kg
  Vd: 0.292 L/kg
[3]; oral administration, 5 mg/kg
  AUC(0-inf): 6840 ng·h/mL
  AUC(0-t): 6800 ng·h/mL
  Cmax: 5680 ng/mL
  Tmax: 20 min
  F: 79%
[2]
  IC50: 221 nM

## O=C(c1ccccc1-n1nccn1)N1CCCN(c2nc3ccc(Cl)cc3c(=O)[nH]2)CC1 [Example 7, 2-(4-(2-(2H-1,2,3-triazol-2-yl)benzoyl)-1,4-diazepan-1-yl)-6-chloroquinazolin-4(3H)-one]
[3]; [4]
  AUC(0-inf): 3700 ng·h/mL
  AUC(0-t): 3450 ng·h/mL
  Cmax: 4080 ng/mL
  Tmax: 4.98 min
  clearance: 4.52 mL/min/kg
  Vd: 1.33 L/kg
[3]; oral administration, 5 mg/kg
  AUC(0-inf): 15000 ng·h/mL
  AUC(0-t): 14300 ng·h/mL
  Cmax: 13800 ng/mL
  Tmax: 15 min
  F: 83.1%
